# Legend:
# ERα = ERα down-regulation and polyubiquitination in KPL-3C cells; type: cell-based, human; conditions: in the presence of MG132
# Procedure: FIG. 5 is a diagram illustrating the results of immunoblotting analysis by which the effects of the ERAP1-peptide in the down-regulation by polyubiquitination of ERα and proteasome decomposition were evaluated. The upper panel and the lower panel show the results obtained by the procedures described below. Namely, KPL-3C cells were treated with the ERAP1-peptide and/or 10 nM E2 for 1 hour. Then, the protein level and the mRNA level of ERα were examined by Western blotting and semi-quantitative RT-PCR. The results thereof are shown in the upper panel. β-actin is a loading control. Then KPL-3C cells were treated with the ERAP1-peptide and/or E2 in the presence of 1 μM MG-132 for 1 hour. Then, the cell lysate was immunoprecipitated with anti-ERα antibody. The results thereof are shown in the lower panel.
# [1] = system: estrogen-dependent gene expression in MCF-7 cells; assay: Microarray transcriptome analysis, MCF-7; type: cell-based, human; conditions: for Fold change: E2 alone/E2 + peptide
# Procedure: MCF-7 cells were treated with 10 μM ERAP1-peptide (Peptide) and the ERAP1-scramble peptide (scrPeptide). Then, immediately, the cells were stimulated with 10 nM E2 for 1 hour. Subsequently, the obtained cell lysate solution was digested with trypsin and subjected to 2DICAL. […] MCF-7 cells were treated with 10 μM ERAP1-peptide. Then, immediately, the cells were stimulated with 10 nM E2 for 5, 10 and 15 hours. Then, RNA extraction and then Cy3-cRNA synthesis were performed, and the Cy3-cRNA was subjected to the microarray. The data were statistically analyzed by GeneSpring software, and the ratio to the value at 0 hour was calculated. **P<0.01.
# MCF-7 cells were treated with 10 μM ERAP1-peptide. Then, immediately the cells were stimulated with 10 nM E2. Then, RNA extraction was performed. Cy3 labeled cRNA was synthesized with Low Input Quick Amp Labeling Kit (Agilent Technologies, Loveland, Colo., USA) and hybridized with a custom microarray at 65° C. for 17 hours. The microarray was washed. Then, the product hybridized was measured with a microarray scanner (Agilent). The results thereof were digitized with Future Extraction software (Agilent). The data were statistically analyzed with GeneSpring software (Agilent), and the ratio to the value at 0 hour was calculated.
structure (smiles),measurement,setting,value
CSCC[C@H](NC(=O)[C@H](CCC(N)=O)NC(=O)[C@H](CCCNC(=N)N)NC(=O)[C@H](CCCNC(=N)N)NC(=O)[C@H](CCCNC(=N)N)NC(=O)[C@H](CCCNC(=N)N)NC(=O)[C@H](CCCNC(=N)N)NC(=O)[C@H](CCCNC(=N)N)NC(=O)[C@H](CCCNC(=N)N)NC(=O)[C@H](CCCNC(=N)N)NC(=O)[C@H](CCCNC(=N)N)NC(=O)[C@H](CCCNC(=N)N)NC(=O)[C@@H](N)CCCNC(=N)N)C(=O)N[C@@H](CC(C)C)C(=O)N[C@@H](CO)C(=O)N[C@@H](CC(=O)O)C(=O)N[C@@H](CC(C)C)C(=O)N[C@H](C(=O)N[C@@H](CC(C)C)C(=O)N[C@@H](CCC(N)=O)C(=O)N[C@@H](CC(C)C)C(=O)N[C@@H](CCCNC(=N)N)C(=O)N[C@@H](CCC(N)=O)C(=O)N[C@@H](CCCNC(=N)N)C(=O)O)[C@@H](C)O [ERAP1-peptide],protein decrease and polyubiquitination of ERα,ERα,suppression for protein decrease of ERα was similarly recognized with inhibition of polyubiquitination
same,change of mRNA expressions,"[1]; 10 μM, 10 nM E2, versus E2",decreased significantly and genome-widely
same,Fold change,[1]; gene ADCY1,5.92
same,Fold change,[1]; gene AKR1C1,7.79
same,Fold change,[1]; gene AKR1C3,6.37
same,Fold change,[1]; gene AKR1C4,6.00
same,Fold change,[1]; gene ANKS6,9.00
same,Fold change,[1]; gene ARHGAP36,7.08
same,Fold change,[1]; gene BASP1,8.01
same,Fold change,[1]; gene BCAS3,5.92
same,Fold change,[1]; gene BMP5,7.72
same,Fold change,[1]; gene BMP7,8.40
same,Fold change,[1]; gene BTG3,9.06
same,Fold change,[1]; gene C1orf59,8.43
same,Fold change,[1]; gene C6orf150,5.95
same,Fold change,[1]; gene C13orf18,5.79
same,Fold change,[1]; gene CA2,9.87
same,Fold change,[1]; gene CALB2,6.05
same,Fold change,[1]; gene CALHM2,8.63
same,Fold change,[1]; gene CALML5,6.39
same,Fold change,[1]; gene CAV1,7.44
same,Fold change,[1]; gene CAV2,6.63
same,Fold change,[1]; gene CCDC83,6.76
same,Fold change,[1]; gene CEACAM5,6.84
same,Fold change,[1]; gene CMTM3,7.06
same,Fold change,[1]; gene CNKSR3,6.27
same,Fold change,[1]; gene CTNND2,6.83
same,Fold change,[1]; gene CXCR7,10.15
same,Fold change,[1]; gene CYBA,9.51
same,Fold change,[1]; gene DCLK1,7.84
same,Fold change,[1]; gene DDX43,8.53
same,Fold change,[1]; gene DPYSL5,5.76
same,Fold change,[1]; gene ECHDC1,7.73
same,Fold change,[1]; gene ELOVL2,7.14
same,Fold change,[1]; gene FABP5,6.38
same,Fold change,[1]; gene FAM189A2,6.33
same,Fold change,[1]; gene FZD6,7.54
same,Fold change,[1]; gene GPER,7.51
same,Fold change,[1]; gene GSTT1,7.93
same,Fold change,[1]; gene HAR1B,7.11
same,Fold change,[1]; gene HMCN1,7.54
same,Fold change,[1]; gene HPDL,7.68
same,Fold change,[1]; gene KCNJ3,8.31
same,Fold change,[1]; gene KCNJ8,6.44
same,Fold change,[1]; gene KCNQ1OT1,6.60
same,Fold change,[1]; gene KIF1A,7.12
same,Fold change,[1]; gene KLK6,5.98
same,Fold change,[1]; gene KLK11,8.08
same,Fold change,[1]; gene LOC389332,6.52
same,Fold change,[1]; gene LOC654433,6.72
same,Fold change,[1]; gene LOC732272,7.09
same,Fold change,[1]; gene LOC100508679,9.85
same,Fold change,[1]; gene LPIN2,6.27
same,Fold change,[1]; gene LRRC10B,7.17
same,Fold change,[1]; gene LXN,11.09
same,Fold change,[1]; gene LYPD1,6.66
same,Fold change,[1]; gene MAGED4B,6.80
same,Fold change,[1]; gene MALL,6.05
same,Fold change,[1]; gene MARCKS,6.99
same,Fold change,[1]; gene ME1,6.91
same,Fold change,[1]; gene MEST,8.84
same,Fold change,[1]; gene MUCL1,6.13
same,Fold change,[1]; gene NCRNA00052,7.27
same,Fold change,[1]; gene NUP210L,7.84
same,Fold change,[1]; gene OOEP,6.57
same,Fold change,[1]; gene PCDH10,5.78
same,Fold change,[1]; gene PDGFRL,5.77
same,Fold change,[1]; gene PM20D2,6.56
same,Fold change,[1]; gene PMP22,5.93
same,Fold change,[1]; gene POTEB,7.70
same,Fold change,[1]; gene POTED,6.82
same,Fold change,[1]; gene PPARG,7.30
same,Fold change,[1]; gene RAMP1,5.82
same,Fold change,[1]; gene RAMP3,7.25
same,Fold change,[1]; gene RGS22,7.22
same,Fold change,[1]; gene RP86KA3,7.84
same,Fold change,[1]; gene S100A14,6.73
same,Fold change,[1]; gene SALL4,6.60
same,Fold change,[1]; gene SDR42E1,8.01
same,Fold change,[1]; gene SERPINA5,5.87
same,Fold change,[1]; gene SLC6A14,8.73
same,Fold change,[1]; gene SLC7A2,8.32
same,Fold change,[1]; gene SLC27A6,8.00
same,Fold change,[1]; gene SNX7,7.48
same,Fold change,[1]; gene SOX3,6.52
same,Fold change,[1]; gene SPANXA1,6.68
same,Fold change,[1]; gene SPANXB2,6.55
same,Fold change,[1]; gene ST8SIA4,6.99
same,Fold change,[1]; gene TFPI2,6.82
same,Fold change,[1]; gene THBD,5.97
same,Fold change,[1]; gene TLR2,5.74
same,Fold change,[1]; gene TMEM26,6.66
same,Fold change,[1]; gene TMEM64,6.46
same,Fold change,[1]; gene TMEM150C,7.57
same,Fold change,[1]; gene TOX2,6.29
same,Fold change,[1]; gene TPM4,7.60
same,Fold change,[1]; gene TSPYL5,9.50
same,Fold change,[1]; gene UGT1A6,5.78
same,Fold change,[1]; gene UGT1A8,6.60
same,Fold change,[1]; gene WISP2,6.73
same,Fold change,[1]; gene XIST,8.53
same,Fold change,[1]; gene ZNF618,6.39

# Reference: US9725490B2, “ERAP1-derived peptide and use thereof” (TOKUSHIMA UNIVERSITY, priority 2011, dated 2017)
